{"source": "patent US8241679B2", "about": "“Composition comprising the extract of crude drug complex having neuroprotective activity for preventing and treating stroke and neurodegenerative diseases” (Neumed Inc., priority 2007, dated 2012)", "test_system": "MCAo in rats", "assay": "MCAo experimental model, infarct volume (TTC staining)", "type": "in vivo, Sprague-Dawley rat", "conditions": "positive control, 45 mg/kg", "experimental": "To determine the preventing effect of the extract of crude drug complex of the present invention on neuronal injury, following intraluminal suture method using animal model was performed by modifying well-mown method disclosed in the literature (Zea L. E. Stroke, 20, pp 84-91, 1989).\n8-weeks old white male Sprague-Dawley rat weighing about 280 g was procured from Samtaco Co. Ltd. (Seoul), […] for 1 week providing with free access to water and feed and acclimated to experimental environment.\nThe rat was anesthetized with 5% isoflurane gas (mixed gas with the gas mixture consisting of 70% N2O and 30% O2 gas and 5% isoflurane) and maintained with 1% isoflurane gas during experiment.\nThe skin at the center of rat neck was excised and right CCA (common carotid artery) and ECA (external carotid artery) were isolated from neighboring tissue and nerves with care. […]\nThe body temperature was monitored and maintained at 37±0.5° C.\nThe caudal was excised and terminal tissue was discarded to obtain 6 numbers of brain slices with the thickness of 2 mm using by brain matrix. […] The volume of cerebral infarction region was calculated by the OPTIMAS program (Media Cybernetics Co., 6.51 version). To determine the exact volume of cerebral infarction region of right hemisphere excluding edema volume (A), the real volume of cerebral infarction (B) was calculated by following Empirical Formula 1 and 2. […]", "data": [{"smiles": "CN(C)c1ccc(O)c2c1C[C@H]1C[C@H]3[C@H](N(C)C)C(O)=C(C(N)=O)C(=O)[C@@]3(O)C(O)=C1C2=O", "note": "[minocycline]", "values": [{"measurement": "infarct volume", "result": "20.5±2.85", "unit": "%"}]}]}
